The source of these data is patent US4672068A, “Antihypertensive 1,4-dihydropyridines having a conjugated ester” (Fujirebio Kabushiki Kaisha, priority 1984, dated 1987).

The structures appear in SMILES notation. Bounds are passed on as bounds.

Data set [1] has as its system Male spontaneously hypertensive rats (SHR), arterial blood pressure. Put plainly: Depressor response after intravenous administration (30 μg/kg), Table 1. The data set is classed as in vivo, rat. To be noted: for Duration: '90<' means greater than 90. In short, it runs like this:
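Conscious restrained SHR with mean arterial pressure above 140 mmHg; pressure recorded via abdominal aortic catheter and transducer. Dosing was at least 2 h after surgery, through a caudal vein catheter. Compound was given in 1.5% PVP/ethanol diluted with 0.9% saline.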

A further data set can be described thus: in vivo. To be noted: mouse, iv, male ddy mice, caudal vein injection, '60<' means greater than 60. The procedure: Acute toxicity of several derivatives was tested with male ddy mice weighed 15-30 grams by the up and down method. Each derivative was dissolved in 1.5% PVP/ethanol solution, and diluted with a saline solution. Such derivative solution was injected into the caudal vein, and the acute toxicity was determined.

Data set [2] deals with Male spontaneously hypertensive rats (SHR), arterial blood pressure. Briefly: Depressor response after intraduodenal administration (1 mg/kg), Table 2. To be noted: for Half-life: '120<' means greater than 120. The data set is classed as in vivo, rat. How it is done: Arterial blood pressure was measured through the catherized artery with a pressure transducer (MPU-0.5, manufactured by Nihon Kohden Kabushiki Kaisha). The catheter was inserted into the abdominal aorta via the median coccygcal artery of SHR under light ether anesthesia. The recordings were made on a rectigraph (manufactured by Sanei Sokki Kabushiki Kaisha). The 1,4-dihydropyridine derivatives prepared in the foregoing examples were administered with catheter which was inserted previously into the caudal vein or duodenum at least two hours after the operation. SHR were restrained with wire mesh cage immediately after the operation.

The test system of data set [3] is Male SHR, systolic blood pressure. Put plainly: Systolic blood pressure by tail cuff method, oral administration (3 mg/kg), Table 4. To be noted: conscious SHR; for Duration: '24<' means greater than 24. In kind it is in vivo, rat. How it is done:
Systolic blood pressure was measured by the tail cuff method with electrophygmomanometer (PE-300, made by Narco Co.). Each derivative (3 mg/kg) was administered orally, suspended in 5% gum arabic solution.

Broadly, the LD50 is the dose at which mortality reaches 50%. A low value points to a more toxic substance. For `COC(=O)C1=C(C)NC(C)=C(C(=O)OCC#Cc2ccccc2)C1c1cccc([N+](=O)[O-])c1` (centres unmarked) [Example 55, Methyl phenylpropargyl 4-(3-nitrophenyl)-2,6-dimethyl-1,4-dihydropyridine-3,5-dicarboxylate], in data set [1], the “The time to reach the lowest BP” value was determined as 2 min, the “ΔBP (Maximum depressor response)” value was determined as 55 mmHg and the Duration is reported as over 90 min. Further, the LD50 in “in vivo” was over 60 mg/kg. In data set [2], the “The time to reach the lowest BP” value was 60 min, the “ΔBP (Maximum depressor response)” value turned out to be 45 mmHg and the Half-life is over 240 min. Besides, in data set [3], the “ΔBP After 1 hour” value is reported as -65 mmHg, the “ΔBP After 3 hours” value is -75 mmHg and the Duration was over 24 h.
Take `COC(=O)C1=C(C)NC(C)=C(C(=O)OCCN(C)Cc2ccccc2)C1c1cccc([N+](=O)[O-])c1.Cl` (centres unmarked) [B, 4-(m-nitrophenyl)-2,6-dimethyl-1,4-dihydropyridine-3,5-dicarboxylic acid-3-methyl ester-5-[2-(benzylmethylamino)-ethyl]ester hydrochloride, reference compound]: in data set [1], the “The time to reach the lowest BP” value is recorded as 0.6 min, the “ΔBP (Maximum depressor response)” value came out at 58.3 mmHg and the Duration lay within 45 to 90 min. The LD50 in “in vivo” was determined as 9.7 mg/kg. For the same compound, in data set [2], the “The time to reach the lowest BP” value amounted to 10.7 min, the “ΔBP (Maximum depressor response)” value is on record as 35 mmHg and the Half-life amounted to 46.7 min. In data set [3], the “ΔBP After 1 hour” value is on record as -27 mmHg, the “ΔBP After 3 hours” value is -4.5 mmHg and the Duration was under 3 h.
